Common to all, as to assay: relative viability (nuclei count vs DMSO), 5 days (fraction); higher = more cells survive
Compound in assay [1]: COc1cc(Nc2c(C#N)cnc3cc(OCCCN4CCN(C)CC4)c(OC)cc23)c(Cl)cc1Cl [Bosutinib] + CC(=O)c1c(C)c2cnc(Nc3ccc(N4CCNCC4)cn3)nc2n(C2CCCC2)c1=O [Palbociclib] (partner 0.5 µM)
In a few lines: (§1)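 Lung cancer cell lines were seeded in 1536-well plates and dosed by pin tool the next day, with either a single drug or a fixed anchor-drug dose combined with five library-drug doses (not always all listed) spaced in √10 steps. Five days later, one step fixed the cells and stained their nuclei (final 0.05% Triton X-100, 1% formaldehyde, 1 ug/ml Hoechst), and nuclei were counted on 4× images. Relative viability is the nuclei count in treated wells divided by the count in vehicle wells, and each value is the median of duplicate plates.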

Compound in assay [2]: COc1cc(Nc2c(C#N)cnc3cc(OCCCN4CCN(C)CC4)c(OC)cc23)c(Cl)cc1Cl [Bosutinib] + CC(C)C[C@H](NC(=O)[C@H](Cc1ccccc1)NC(=O)c1cnccn1)B(O)O [Bortezomib] (partner 0.002 µM)
In a few lines:
as §1

Compound in assay [3]: COc1cc(Nc2c(C#N)cnc3cc(OCCCN4CCN(C)CC4)c(OC)cc23)c(Cl)cc1Cl [Bosutinib] + COc1cccc2cc(-c3nc([C@H]4CC[C@H](C(=O)O)CC4)n4ncnc(N)c34)[nH]c12 [OSI-027] (partner 0.5 µM)
The method, boiled down:
as §1

Compound in assay [4]: COc1cc(Nc2c(C#N)cnc3cc(OCCCN4CCN(C)CC4)c(OC)cc23)c(Cl)cc1Cl [Bosutinib] + Cc1cc(Nc2cc(N3CCN(C)CC3)nc(Sc3ccc(NC(=O)C4CC4)cc3)n2)n[nH]1 [Tozasertib] (partner 0.1 µM)
The method, boiled down:
as §1

Compound in assay [5]: COc1cc(Nc2c(C#N)cnc3cc(OCCCN4CCN(C)CC4)c(OC)cc23)c(Cl)cc1Cl [Bosutinib] + Nc1nc2[nH]cc(CCc3ccc(C(=O)N[C@@H](CCC(=O)O)C(=O)O)cc3)c2c(=O)[nH]1 [Pemetrexed] (partner 0.2 µM)
The method, boiled down:
as §1

For the cell line ABC-1, the relative viability in assay [1] (first compound 0.01 µM) amounted to 0.864; in assay [1] (first compound 0.03162 µM), 0.72; in assay [1] (first compound 0.1 µM), 0.759; in assay [1] (first compound 1 µM) it was 0.612; in assay [2] (first compound 0.01 µM), 0.331; in assay [2] (first compound 0.03162 µM) it was 0.338. The relative viability in assay [2] (first compound 0.1 µM) was determined as 0.312; in assay [2] (first compound 1 µM) it was 0.33; in assay [3] (first compound 0.01 µM), 0.507; in assay [3] (first compound 0.03162 µM) it was 0.471; in assay [3] (first compound 0.1 µM), 0.432; in assay [3] (first compound 1 µM), 0.577. The relative viability in assay [4] (first compound 0.01 µM) came out at 0.217; in assay [4] (first compound 0.03162 µM) it was 0.168; in assay [4] (first compound 0.1 µM), 0.144; in assay [4] (first compound 1 µM), 0.177.

For the cell line NCI-H1703, the relative viability in assay [2] (first compound 0.01 µM) was determined as 0.34; in assay [2] (first compound 0.03162 µM) it was 0.332; in assay [2] (first compound 0.1 µM) it was 0.402; in assay [2] (first compound 1 µM) it was 0.236.

Regarding NCI-H2342, the relative viability in assay [1] (first compound 0.01 µM) was found to be 0.539; in assay [1] (first compound 0.03162 µM), 0.508; in assay [1] (first compound 0.1 µM) it was 0.545; in assay [1] (first compound 1 µM), 0.579; in assay [3] (first compound 0.01 µM), 0.634; in assay [3] (first compound 0.03162 µM), 0.669. The relative viability in assay [3] (first compound 0.1 µM) was determined as 0.702; in assay [3] (first compound 1 µM) it was 0.718; in assay [4] (first compound 0.01 µM), 0.51; in assay [4] (first compound 0.03162 µM) it was 0.449; in assay [4] (first compound 0.1 µM) it was 0.526; in assay [4] (first compound 1 µM) it was 0.517. Moreover, the relative viability in assay [5] (first compound 0.01 µM) was determined as 0.783; in assay [5] (first compound 0.03162 µM), 0.799; in assay [5] (first compound 0.1 µM) it was 0.813; in assay [5] (first compound 1 µM), 0.841.

In the case of SW 900, the relative viability is 0.524 in assay [1] (first compound 0.01 µM); 0.525 in assay [1] (first compound 0.03162 µM); 0.5 in assay [1] (first compound 0.1 µM); 0.352 in assay [1] (first compound 1 µM); 0.51 in assay [3] (first compound 0.01 µM); 0.591 in assay [3] (first compound 0.1 µM). The relative viability in assay [3] (first compound 1 µM) is 0.455; in assay [4] (first compound 0.01 µM), 0.521; in assay [4] (first compound 0.1 µM), 0.586; in assay [4] (first compound 1 µM), 0.507; in assay [5] (first compound 0.01 µM), 0.465; in assay [5] (first compound 0.03162 µM), 0.501. Besides, the figures for the relative viability in assay [5] (first compound 0.1 µM) and in assay [5] (first compound 1 µM) were 0.462 and 0.39, respectively.

On to NCI-H522, for which the relative viability in assay [1] (first compound 0.01 µM) came to 1.07; in assay [1] (first compound 0.03162 µM), 0.93; in assay [1] (first compound 0.1 µM) it was 0.996; in assay [1] (first compound 1 µM), 0.8; in assay [3] (first compound 0.01 µM) it was 0.734; in assay [3] (first compound 0.03162 µM), 0.641. Further, the relative viability in assay [3] (first compound 0.1 µM) is 0.682; in assay [3] (first compound 1 µM), 0.69; in assay [4] (first compound 0.01 µM) it was 0.564; in assay [4] (first compound 0.03162 µM), 0.504; in assay [4] (first compound 0.1 µM), 0.604; in assay [4] (first compound 1 µM), 0.485. The relative viability in assay [5] (first compound 0.01 µM) came to 0.982; in assay [5] (first compound 0.03162 µM), 0.985; in assay [5] (first compound 0.1 µM) it was 0.86; in assay [5] (first compound 1 µM), 0.863.

On to NCI-H727, for which the relative viability stood at 0.642 in assay [1] (first compound 0.01 µM); 0.673 in assay [1] (first compound 0.03162 µM); 0.63 in assay [1] (first compound 0.1 µM); 0.632 in assay [1] (first compound 1 µM); 0.913 in assay [2] (first compound 0.01 µM); 0.777 in assay [2] (first compound 0.03162 µM). In addition, the relative viability in assay [2] (first compound 0.1 µM) was 0.969; in assay [2] (first compound 1 µM) it was 0.71; in assay [3] (first compound 0.01 µM), 0.605; in assay [3] (first compound 0.03162 µM), 0.817; in assay [3] (first compound 0.1 µM) it was 0.564; in assay [3] (first compound 1 µM), 0.529. The relative viability in assay [4] (first compound 0.01 µM) worked out at 0.577; in assay [4] (first compound 0.03162 µM) it was 0.598; in assay [4] (first compound 0.1 µM) it was 0.549; in assay [4] (first compound 1 µM), 0.441.

As for NCI-H1792, the relative viability worked out at 0.686 in assay [1] (first compound 0.01 µM); 0.588 in assay [1] (first compound 0.03162 µM); 0.724 in assay [1] (first compound 0.1 µM); 0.728 in assay [1] (first compound 1 µM); 0.991 in assay [2] (first compound 0.01 µM); 0.95 in assay [2] (first compound 0.03162 µM). Also, the relative viability in assay [2] (first compound 0.1 µM) turned out to be 0.974; in assay [2] (first compound 1 µM), 0.884; in assay [3] (first compound 0.01 µM) it was 0.692; in assay [3] (first compound 0.03162 µM) it was 0.706; in assay [3] (first compound 0.1 µM) it was 0.751; in assay [3] (first compound 1 µM), 0.688. Also, the relative viability was found to be 0.902 in assay [5] (first compound 0.01 µM), 0.792 in assay [5] (first compound 0.03162 µM), 0.891 in assay [5] (first compound 0.1 µM) and 0.764 in assay [5] (first compound 1 µM).

Consider IA-LM, for which the relative viability was 0.797 in assay [2] (first compound 0.01 µM), 0.827 in assay [2] (first compound 0.03162 µM), 0.881 in assay [2] (first compound 0.1 µM) and 0.8 in assay [2] (first compound 1 µM).

For the cell line NCI-H358, the relative viability in assay [1] (first compound 0.01 µM) amounted to 0.154; in assay [1] (first compound 0.03162 µM), 0.141; in assay [1] (first compound 0.1 µM) it was 0.139; in assay [1] (first compound 1 µM) it was 0.128; in assay [3] (first compound 0.01 µM), 0.786; in assay [3] (first compound 0.03162 µM) it was 0.742. Moreover, the relative viability in assay [3] (first compound 0.1 µM) is 0.787; in assay [3] (first compound 1 µM) it was 0.545; in assay [4] (first compound 0.01 µM), 0.101; in assay [4] (first compound 0.03162 µM) it was 0.106; in assay [4] (first compound 0.1 µM), 0.109; in assay [4] (first compound 1 µM), 0.113. The relative viability in assay [5] (first compound 0.01 µM) was found to be 0.152; in assay [5] (first compound 0.03162 µM), 0.163; in assay [5] (first compound 0.1 µM), 0.18; in assay [5] (first compound 1 µM), 0.163.

NCI-H596: the relative viability in assay [2] (first compound 0.01 µM) was 1; in assay [2] (first compound 0.03162 µM), 0.967; in assay [2] (first compound 0.1 µM), 1.11; in assay [2] (first compound 1 µM) it was 1.02; in assay [3] (first compound 0.01 µM) it was 0.743; in assay [3] (first compound 0.03162 µM) it was 0.738. Further, the relative viability in assay [3] (first compound 0.1 µM) was determined as 0.639; in assay [3] (first compound 1 µM), 0.496; in assay [4] (first compound 0.01 µM) it was 1.06; in assay [4] (first compound 0.03162 µM) it was 0.828; in assay [4] (first compound 0.1 µM) it was 0.893; in assay [4] (first compound 1 µM), 0.788. Moreover, the relative viability was determined as 0.576 in assay [5] (first compound 0.01 µM), 0.464 in assay [5] (first compound 0.03162 µM), 0.503 in assay [5] (first compound 0.1 µM) and 0.505 in assay [5] (first compound 1 µM).

Consider NCI-H1563, for which the relative viability in assay [2] (first compound 0.01 µM) came to 0.885; in assay [2] (first compound 0.03162 µM) it was 0.775; in assay [2] (first compound 0.1 µM) it was 0.784; in assay [2] (first compound 1 µM), 0.659; in assay [3] (first compound 0.01 µM), 0.794; in assay [3] (first compound 0.03162 µM), 0.831. Moreover, the relative viability was determined as 0.761 in assay [3] (first compound 0.1 µM); 0.717 in assay [3] (first compound 1 µM); 0.655 in assay [5] (first compound 0.01 µM); 0.771 in assay [5] (first compound 0.03162 µM); 0.772 in assay [5] (first compound 0.1 µM); 0.638 in assay [5] (first compound 1 µM).

The values above are taken from the supplement of paper PMC10307832.
